{"source": "patent EP1494749B1", "about": "“PROCESS FOR PREPARATION OF PHARMACEUTICAL COMPOSITION CONTAINING ANTIRETROVIRAL PROTEASE INHIBITOR WITH IMPROVED BIOAVAILABILITY” (Cadila Pharmaceuticals Limited, priority 2002, dated 2003)", "key": {"clinical": {"test": "clinical", "settings": "human, in vivo", "protocol": "2. Kit In a further aspect, the present invention provides a kit comprising one or more pharmaceutically acceptable doses of an antiretroviral protease inhibitor as defined above and one or more pharmaceutically acceptable doses of piperine or an isomer thereof. […] However, the scope of this invention is not limited by them. […] Nelfinavir i) Two tablets each containing 250 mg of Nelfinavir and a tablet containing 20 mg of piperine. ii) Two tablets each containing 250 mg of Nelfinavir and two tablets each containing 15 mg of piperine. Saquinavir i) Three capsules each containing 200 mg of Saquinavir and three tablets each containing 5 mg of piperine. ii) Four capsules each containing 200 mg of Saquinavir and a tablets containing 20 mg of piperine. 3. The following are Examples of excipients (i.e. other than piperine) which can be used to prepare pharmaceutical compositions of the present invention. However, the scope of this invention is not limited by them. Saquinavir : • Capsule: medium chain mono- and diglycerides, povidone and dl-alpha tocopherol. […] 4. […] However, the scope of this invention is not limited by them. […] 5."}, "[1]": {"settings": "in vivo; cited from earlier work"}}, "data": [{"smiles": "CC(C)(C)NC(=O)[C@@H]1CN(Cc2cccnc2)CCN1C[C@@H](O)C[C@@H](Cc1ccccc1)C(=O)N[C@H]1c2ccccc2C[C@H]1O", "note": "[Indinavir]", "values": [{"measurement": "Tmax", "setting": "clinical", "result": 1.58, "unit": "h"}, {"measurement": "reduction in AUC", "setting": "[1]", "result": "77% ± 8%"}]}]}
